PubChem BioAssay AID248 (DTP/NCI, 2004)
Values joined by “and” are separate entries in the source; they are usually repeats but may differ in a detail not shown here. Equal entries are not always repeated. Inconclusive results and toxic doses are left out. No stated cut-off is given here; in the data, active means T/C of 150% or more; inactive means T/C below 125%.

Test system: L1210 leukemia ip in BDF1 mice, survival T/C
Assay: NCI In Vivo Anticancer Drug Screen. Data for tumor model L1210 Leukemia (intraperitoneal) in B6D2F1 (BDF1) mice
Settings: endpoint: mean survival time, higher = longer survival
How it was run: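 Transplantable tumor model; survival measured in treated vs vehicle control mice. Value = treated/control.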

[1] = dose: 100.0 mg/kg/injection, schedule: Q01DX009 (ip), vehicle: saline with Tween-80
[2] = dose: 100.0 mg/kg/injection, schedule: Q04DX002 (ip), vehicle: saline with Tween-80
[3] = dose: 200.0 mg/kg/injection, schedule: Q01DX009 (ip), vehicle: saline with Tween-80
[4] = dose: 200.0 mg/kg/injection, schedule: Q04DX002 (ip), vehicle: saline with Tween-80
[5] = dose: 400.0 mg/kg/injection, schedule: Q01DX009 (ip), vehicle: saline with Tween-80
[6] = dose: 400.0 mg/kg/injection, schedule: Q04DX002 (ip), vehicle: saline with Tween-80
[7] = dose: 75.0 mg/kg/injection, schedule: Q01DX001 (ip), vehicle: saline
[8] = dose: 150.0 mg/kg/injection, schedule: Q01DX001 (ip), vehicle: saline
[9] = dose: 300.0 mg/kg/injection, schedule: Q01DX001 (ip), vehicle: saline
[10] = dose: 100.0 mg/kg/injection, schedule: Q01DX001 (ip), vehicle: Klucel (hydroxypropylcellulose) (HPC)
[11] = dose: 100.0 mg/kg/injection, schedule: Q04DX003 (ip), vehicle: Klucel (hydroxypropylcellulose) (HPC)
[12] = dose: 200.0 mg/kg/injection, schedule: Q01DX001 (ip), vehicle: Klucel (hydroxypropylcellulose) (HPC)
[13] = dose: 200.0 mg/kg/injection, schedule: Q04DX003 (ip), vehicle: Klucel (hydroxypropylcellulose) (HPC)
[14] = dose: 400.0 mg/kg/injection, schedule: Q04DX003 (ip), vehicle: Klucel (hydroxypropylcellulose) (HPC)
[15] = dose: 100.0 mg/kg/injection, schedule: Q01DX009 (ip), vehicle: saline
[16] = dose: 100.0 mg/kg/injection, schedule: Q04DX003 (ip), vehicle: saline
[17] = dose: 200.0 mg/kg/injection, schedule: Q01DX009 (ip), vehicle: saline
[18] = dose: 200.0 mg/kg/injection, schedule: Q04DX003 (ip), vehicle: saline
[19] = dose: 400.0 mg/kg/injection, schedule: Q04DX003 (ip), vehicle: saline
[20] = dose: 100.0 mg/kg/injection, schedule: Q01DX009 (ip), vehicle: Klucel (hydroxypropylcellulose) (HPC)
[21] = dose: 200.0 mg/kg/injection, schedule: Q01DX009 (ip), vehicle: Klucel (hydroxypropylcellulose) (HPC)
[22] = dose: 400.0 mg/kg/injection, schedule: Q01DX009 (ip), vehicle: Klucel (hydroxypropylcellulose) (HPC)

Measured: T/C

O[Si](c1ccccc1)(c1ccccc1)c1ccccc1
inactive: [1] 95 % of control | [2] 100 % of control | [3] 88 % of control | [4] 96 % of control | [5] 91 % of control | [6] 87 % of control

c1cc[c]([Ge]([CH2][CH2][Sn]([c]2ccccc2)([c]2ccccc2)[c]2ccccc2)([c]2ccccc2)[c]2ccccc2)cc1
inactive: [2] 102 % of control | [4] 98 % of control | [6] 98 % of control

O=C(O)c1c(Cl)c(Cl)c(C(=O)O)c(Cl)c1Cl
inactive: [1] 95 % of control | [3] 93 % of control | [5] 89 % of control

CC(C)CCSc1ccccc1
inactive: dose: 18.75 mg/kg/injection, schedule: Q01DX009 (ip), vehicle: acetone 91 % of control | dose: 37.5 mg/kg/injection, schedule: Q01DX009 (ip), vehicle: acetone 92 % of control | dose: 37.5 mg/kg/injection, schedule: Q04DX003 (ip), vehicle: acetone 100 % of control | dose: 75.0 mg/kg/injection, schedule: Q01DX001 (ip), vehicle: acetone 100 % of control | dose: 75.0 mg/kg/injection, schedule: Q01DX009 (ip), vehicle: acetone 91 % of control | dose: 75.0 mg/kg/injection, schedule: Q04DX003 (ip), vehicle: acetone 90 % of control | dose: 150.0 mg/kg/injection, schedule: Q01DX001 (ip), vehicle: acetone 94 % of control | dose: 150.0 mg/kg/injection, schedule: Q04DX003 (ip), vehicle: acetone 95 % of control

C[n+]1ccccc1/C=C/c1ccc2cccc(O)c2n1
inactive: dose: 2.0 mg/kg/injection, schedule: Q01DX015 (ip), vehicle: saline 95 % of control | dose: 4.0 mg/kg/injection, schedule: Q01DX015 (ip), vehicle: saline 95 % of control | dose: 8.0 mg/kg/injection, schedule: Q01DX015 (ip), vehicle: saline 94 % of control | dose: 16.0 mg/kg/injection, schedule: Q01DX015 (ip), vehicle: saline 101 % of control | dose: 32.0 mg/kg/injection, schedule: Q01DX015 (ip), vehicle: saline 97 % of control | [7] 102 % of control

CC1CCC=C2C(=O)C3OC3C(C(C)(C)O)C21C (stereo unspecified)
inactive: dose: 100.0 mg/kg/injection, schedule: Q01DX009 (ip), vehicle: acetone 98 % of control | dose: 100.0 mg/kg/injection, schedule: Q04DX003 (ip), vehicle: saline with Tween-80 90 % of control | dose: 200.0 mg/kg/injection, schedule: Q01DX009 (ip), vehicle: acetone 96 % of control | dose: 400.0 mg/kg/injection, schedule: Q01DX009 (ip), vehicle: acetone 100 % of control | dose: 400.0 mg/kg/injection, schedule: Q04DX003 (ip), vehicle: saline with Tween-80 93 % of control

CC(C)(C(=Nc1ccccc1)N1CCCCC1)c1ccccc1
inactive: [7] 97 % of control | [8] 94 % of control | [9] 96 % of control

CCS(=O)(=O)c1ccc(NC(=O)OC2CC(C)CCC2C(C)C)cc1 (stereo unspecified)
inactive: dose: 100.0 mg/kg/injection, schedule: Q01DX001 (ip), vehicle: carboxymethylcellulose (CMC) 100 % of control | dose: 200.0 mg/kg/injection, schedule: Q01DX001 (ip), vehicle: carboxymethylcellulose (CMC) 102 % of control | dose: 400.0 mg/kg/injection, schedule: Q01DX001 (ip), vehicle: carboxymethylcellulose (CMC) 91 % of control

COC(=O)c1cc(Cl)ccc1OCC(=O)O
inactive: [10] 90 % of control | [11] 102 % of control | [12] 93 % of control | [13] 101 % of control | dose: 400.0 mg/kg/injection, schedule: Q01DX001 (ip), vehicle: Klucel (hydroxypropylcellulose) (HPC) 90 % of control | [14] 107 % of control

CCCCCCCCCCCCc1ccc(CS)cc1
inactive: [15] 98 % of control | [16] 92 % of control | [17] 101 % of control | [18] 91 % of control | dose: 400.0 mg/kg/injection, schedule: Q01DX009 (ip), vehicle: saline 101 % of control | [19] 93 % of control

CCOC(OCC)C(O)CNc1ccc([N+](=O)[O-])cc1[N+](=O)[O-] (stereo unspecified)
inactive: [11] 98 % of control | [13] 101 % of control | [14] 103 % of control

CNc1[nH]c(=S)ncc1C
inactive: dose: 100.0 mg/kg/injection, schedule: Q01DX Z (ip), vehicle: methylcellulose (MC) 100 % of control | dose: 200.0 mg/kg/injection, schedule: Q01DX Z (ip), vehicle: methylcellulose (MC) 99 % of control

CC(Oc1cc(Cl)c(Cl)cc1Cl)C(=O)ON(C)C (stereo unspecified)
inactive: [20] 100 % of control | [21] 100 % of control

COC1OC(CO)C(O)C(OC)C1OC (stereo unspecified)
inactive: [16] 93 % of control | [18] 103 % of control | [19] 106 % of control

N#Cc1cnc(SCC(=O)O)nc1N
inactive: dose: 100.0 mg/kg/injection, schedule: Q01DX001 (ip), vehicle: saline 96 % of control | dose: 200.0 mg/kg/injection, schedule: Q01DX001 (ip), vehicle: saline 102 % of control | dose: 400.0 mg/kg/injection, schedule: Q01DX001 (ip), vehicle: saline 102 % of control

CN(C)CCc1ccc(Nc2ccnc3cc(Cl)ccc23)cc1
inactive: [7] 101 % of control | [8] 98 % of control | [9] 95 % of control

O=C1OC(=O)C(Br)=C1Br
inactive: dose: 25.0 mg/kg/injection, schedule: Q04DX002 (ip), vehicle: saline 101 % of control | dose: 50.0 mg/kg/injection, schedule: Q01DX009 (ip), vehicle: saline 94 % of control | dose: 50.0 mg/kg/injection, schedule: Q04DX002 (ip), vehicle: saline 97 % of control | [15] 91 % of control | dose: 100.0 mg/kg/injection, schedule: Q04DX002 (ip), vehicle: saline 97 % of control | [16] 95 % of control | [17] 107 % of control | dose: 200.0 mg/kg/injection, schedule: Q04DX002 (ip), vehicle: saline 93 % of control and 103 % of control | [18] 98 % of control

COc1ccccc1NC(=O)CC(C)=O
inactive: dose: 50.0 mg/kg/injection, schedule: Q01DX001 (ip), vehicle: Klucel (hydroxypropylcellulose) (HPC) 100 % of control | [10] 100 % of control | [1] 103 % of control | [12] 106 % of control | [3] 95 % of control | [5] 97 % of control

Cc1ccc(N2C(=O)CC(NC3CCCCC3)C2=O)cc1 (stereo unspecified)
inactive: [20] 97 % of control | [21] 100 % of control | [22] 97 % of control

Cc1ccc(NC(=O)Nc2cccc3ccccc23)cc1Cl
inactive: [20] 99 % of control | [11] 91 % of control | [21] 94 % of control | [13] 86 % of control | [22] 97 % of control | [14] 90 % of control

O=C(Nc1ccc(I)cc1)c1cc([N+](=O)[O-])ccc1O
inactive: dose: 17.0 mg/kg/injection, schedule: Q02DX010 (ip), vehicle: carboxymethylcellulose (CMC) 99 % of control | dose: 34.0 mg/kg/injection, schedule: Q02DX010 (ip), vehicle: carboxymethylcellulose (CMC) 103 % of control | dose: 68.0 mg/kg/injection, schedule: Q02DX010 (ip), vehicle: carboxymethylcellulose (CMC) 97 % of control | dose: 136.0 mg/kg/injection, schedule: Q02DX010 (ip), vehicle: carboxymethylcellulose (CMC) 95 % of control | dose: 272.0 mg/kg/injection, schedule: Q02DX010 (ip), vehicle: carboxymethylcellulose (CMC) 98 % of control

B1CCN1
inactive: dose: 9.5 mg/kg/injection, schedule: Q01DX001 (ip), vehicle: saline 94 % of control | dose: 19.0 mg/kg/injection, schedule: Q01DX001 (ip), vehicle: saline 103 % of control

BrC1=C(Br)C2(Br)C(c3ccccc3)CC1(Br)C2(Br)Br (stereo unspecified)
inactive: [16] 92 % of control | [18] 106 % of control | [19] 92 % of control

C1CCC2[N-]CC3CCCCC3[N-]CC3CCCCC3[N-]CC3CCCCC3[N-]CC2C1.CO.[Co+3] (stereo unspecified)
inactive: dose: 100.0 mg/kg/injection, schedule: Q04DX002 (ip), vehicle: Klucel (hydroxypropylcellulose) (HPC) 110 % of control | dose: 200.0 mg/kg/injection, schedule: Q04DX002 (ip), vehicle: Klucel (hydroxypropylcellulose) (HPC) 103 % of control
